How the values were obtained:
IL-1β = test: Bovine whole blood assay, IL-1β; type: cell-based; conditions: overstimulation of IL-1β, perceived cellular toxicity concentration;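 further: compound concentration at which rising IL-1β release signals cytotoxicity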
Protocol: (protected from light) for 30 minutes.

P. multocida 46572 = test: In vivo mouse lung infection challenge model (murine efficacy); conditions: mouse, in vivo
Protocol: The challenge organism was P. multocida 46572. Target challenge concentration was 5×10^2 CFU/mouse. Isolated colonies from overnight growth (37° C. with 5% CO2) on trypticase soy agar (TSA II) blood plates were transferred to room temperature Brain Heart Infusion Broth (BHIB). The broth culture was incubated 3.5-4 hours to approximately mid-log phase of growth, as measured by forward light scatter at 600 nm (OD600, 0.200). The culture was centrifuged to collect the bacterial pellet. The pellet was re-suspended in BHIB and adjusted to provide an approximate concentration of 2.7 log^10 colony forming units (CFU) in 0.04 mL at the highest concentration. The challenge inoculum concentration was confirmed by serial dilutions of the inoculum for CFU enumeration. On Day −5, CD-1 female mice were received. Mice were given standard rodent diet and water ad libitum. On Day 0, bacterial inoculum (0.04 mL) was administered to each mouse (n=36) intranasally. Compounds of the invention were dosed at 20 mg/kg (0.1 mL) in a buffered (˜pH 5.4) propylene glycol, monothioglycerol and water solution by subcutaneous injection. Animals were observed from Days 1-10. The study was terminated on Day 10. In addition, some treatment groups were sampled at 6, 24, and 48 hours post bacterial challenge for RNA sequence analysis of lung tissue.
The murine efficacy model (P. multocida challenge) was optimized, and the treatment group size was powered to be able to observe statistically significant improvement of survival to expected ranges for immunomodulatory compounds. The experimental design was a randomized complete block design. Mice were individually identified and treatment groups comingled within a cage, with every treatment group equally represented across cages. Mortality was the primary variable. Mortality data was analyzed using a generalized mixed model with fixed effect of treatment and random effect of block. Survival time was also analyzed using the SAS PHREG (survival analysis) procedure to examine whether there were significant differences between treatment groups and the control group. Numerous compounds of the invention and M9 (positive control) were tested in this model at a dose of 20 mg/kg (Table 3). Typical percent survival for no treatment control is in the range of 0-20% based on study to study variation in challenge inoculum and rate of infection. […] Mouse survival for M9 was about 90-100%, further supporting its residual antibacterial properties against the bacterial strain. Harmonized survival accounts for % survival relative to vehicle (“−” control) and M9 (“+” control)) survival data (Table 3).

BRD = test: Separate study, M9 versus saline control: lung lesions and mortality; type: in vivo; conditions: 10 mg/kg
NLRX1 = NLRX1 (Bos taurus, UniProt A7MB19); test: Drug/protein binding partner, SPR: NLRX1; set-up: species or system bovine; conditions: PBMCs
Protocol: To further characterize the direct activity of the compounds of the invention, experiments to identify the drug's direct binding host partners(s) were performed with the aim of identifying the potential biological targets. Bovine primary cells (peripheral blood mononuclear cells [PBMCs] and polymorphonuclear cells [PMN/neutrophils]) and tissue (trachea, lung) protein homogenates were mixed with M9 and the macrolide, gamithromicin as a comparator. Tissue interactions were allowed to form using a heterogeneous assembly method (nematic protein organization technique, NPOT; Inoviem Scientific); and traditional western blots to identify native-structure proteins bound to the compound. Mass spectrometry analysis identified eight proteins involved in the interaction with M9 as compared to gamithromycin. The antibacterial macrolide gamithromycin was used as a comparator to differentiate specific binding to M9. These proteins were considered to be either direct binding partners of the drug or closely involved in the drug:target interaction (Table 6).
In order to add further clarity to binding partner identification, surface plasma resonance (SPR) technology was used. […]
KD is the equilibrium dissociation constant that was used to present the drug/target affinity. The identified targets associated with drug were measured by surface plasmon resonance (SPR) to define the KD.

NLRX1, sequence (A7MB19 1-973): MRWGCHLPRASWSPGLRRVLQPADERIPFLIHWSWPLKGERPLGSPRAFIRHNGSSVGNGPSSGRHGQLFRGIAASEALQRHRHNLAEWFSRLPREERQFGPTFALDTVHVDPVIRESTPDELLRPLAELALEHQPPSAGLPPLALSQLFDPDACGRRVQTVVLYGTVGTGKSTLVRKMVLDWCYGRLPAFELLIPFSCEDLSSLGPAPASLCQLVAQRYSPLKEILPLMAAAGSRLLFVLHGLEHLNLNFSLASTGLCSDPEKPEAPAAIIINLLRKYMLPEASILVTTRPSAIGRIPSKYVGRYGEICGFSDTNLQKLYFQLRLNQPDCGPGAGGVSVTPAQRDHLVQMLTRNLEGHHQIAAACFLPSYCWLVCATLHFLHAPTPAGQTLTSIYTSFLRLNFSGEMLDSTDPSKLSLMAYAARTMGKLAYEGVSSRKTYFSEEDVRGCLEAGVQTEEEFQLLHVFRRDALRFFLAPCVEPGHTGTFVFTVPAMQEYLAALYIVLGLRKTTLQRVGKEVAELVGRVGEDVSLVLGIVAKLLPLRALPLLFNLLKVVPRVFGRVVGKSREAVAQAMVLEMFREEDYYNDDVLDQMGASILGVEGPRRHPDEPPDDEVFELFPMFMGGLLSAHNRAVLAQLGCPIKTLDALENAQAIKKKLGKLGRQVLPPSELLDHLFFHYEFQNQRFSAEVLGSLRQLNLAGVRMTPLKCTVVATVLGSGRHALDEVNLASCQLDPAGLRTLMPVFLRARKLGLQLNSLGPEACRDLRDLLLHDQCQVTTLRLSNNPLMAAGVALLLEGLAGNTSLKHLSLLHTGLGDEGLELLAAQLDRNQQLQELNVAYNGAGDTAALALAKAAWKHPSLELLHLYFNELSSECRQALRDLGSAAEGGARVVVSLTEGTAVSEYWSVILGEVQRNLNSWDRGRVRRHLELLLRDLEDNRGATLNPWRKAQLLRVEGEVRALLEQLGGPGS

Structure (SMILES): CCCNC[C@]1(O)[C@H](C)O[C@@H](O[C@H]2[C@H](C)[C@@H](O[C@@H]3O[C@H](C)C[C@H](NC)[C@H]3O)[C@](C)(O)C[C@@H](C)CN[C@H](C)[C@@H](O)[C@](C)(O)[C@@H](CC)OC(=O)[C@@H]2C)C[C@@]1(C)OC [Example M9, (2R,3S,4R,5R,8R,10R,11R,12S,13S,14R)-2-ethyl-3,4,10-trihydroxy-13-(((2R,4R,5S,6S)-5-hydroxy-4-methoxy-4,6-dimethyl-5-((propylamino)methyl)-tetrahydro-2H-pyran-2-yl)oxy)-11-(((2S,3R,4S,6R)-3-hydroxy-6-methyl-4-(methylamino)tetrahydro-2H-pyran-2-yl)oxy)-3,5,8,10,12,14-hexamethyl-1-oxa-6-azacyclopentadecan-15-one]
- IL-1β OS of LPS (IL-1β): > 500 µM
- clinical efficacy in P. multocida infection in mice (P. multocida 46572): clinically efficacious
- lung lesions (BRD; versus saline control 31%, p=0.023): 20%
- Mortality (BRD; versus saline control 38.9%, p=0.025): 13%
- Interaction KD (NLRX1): Indirect

From patent publication US12390440B2, “Immunomodulating trifluoromethyl-aminal azalides” (Zoetis Services LLC, priority 2020, dated 2025)
